In US20040186021A1, “Substituted benzo-nitro-heterocycles” (priority 2001, published 2004):

Key:
[1] = logP determination by HPLC (reversed-phase column C 18), EC Directive 79/831 Annex V.A8; type: physicochemical; conditions: for chromatographic logP: reversed-phase HPLC column (C 18), at pH=2; for logP a): acetonitrile, 43° C.
Procedure: LogP values given in Table 1 were determined in accordance with EC Directive 79/831 Annex V.A8 by HPLC (High Performance Liquid Chromatography) using a reversed-phase column (C 18). Temperature: 43° C. (a) Mobile phases for the determination in the acidic range: 0.1% aqueous phosphoric acid, acetonitrile; linear gradient from 10% acetonitrile to 90% acetonitrile—the corresponding measurement results in Table 1 are marked ^a). (b) Mobile phases for the determination in the neutral range: 0.01 molar aqueous phosphate buffer solution, acetonitrile; linear gradient from 10% acetonitrile to 90% acetonitrile—the corresponding measurement results in Table 1 are marked ^b). Calibration was carried out using unbranched alkan-2-ones (having 3 to 16 carbon atoms) with known logP values (determination of the logP values by the retention times using linear interpolation between two successive alkanones).

weeds [2] = assay: Pre-emergence test (Example A); type: in vivo; conditions: soil sprayed 24 hours after sowing, rated after three weeks
Procedure: Pre-Emergence Test [table] To produce a suitable preparation of active compound, one part by weight of active compound is mixed with the stated amount of solvent, the stated amount of emulsifier is added and the concentrate is diluted with water to the desired concentration. Seeds of the test plants are sown in normal soil. After 24 hours, the soil is sprayed with the preparation of active compounds such that the particular amount of active compound desired is applied per unit area. The concentration of active compound in the spray liquor is chosen such that the particular amount of active compound desired is applied in 1000 litres of water per hectare. After three weeks, the degree of damage to the plants is rated in % damage in comparison to the development of untreated control. The figures denote: 0%=no effect (like untreated control) 100%=total destruction

weeds [3] = assay: Post-emergence test (Example B); type: in vivo; conditions: test plants of 5-15 cm sprayed, rated after three weeks
Procedure: To produce a suitable preparation of active compound, one part by weight of active compound is mixed with the stated amount of solvent, the stated amount of emulsifier is added and the concentrate is diluted with water to the desired concentration.
Test plants of a height of 5-15 cm are sprayed with the preparation of active compounds such that the particular amounts of active compounds desired are applied per unit area. The concentration of the spray liquor is chosen such that the particular amounts of active compounds desired are applied in 1000 l of water/ha.
After three weeks, the degree of damage to the plants is rated in % damage in comparison to the development of the untreated control.
0%=no effect (like untreated control)

[4] = Table 1; a) acidic range: 0.1% aqueous phosphoric acid
[5] = Table 2, compounds of formula (II); a) acidic range: 0.1% aqueous phosphoric acid

SMILES | action against weeds (degree of damage to the plants) (weeds [2]) | action against weeds (degree of damage to the plants) (weeds [3]) | logP a) [1, 4] | also measured
O=c1[nH]c2cc(-n3c(=O)cc(C(F)(F)F)[nH]c3=O)c(F)cc2s1 [3-(6-fluoro-2,3-dihydro-2-oxo-1,3-benzothiazol-5-yl)-6-trifluoromethyl-2,4(1H,3H)-pyrimidinedione] |  |  |  | chromatographic logP [1]: 1.48
CCOC(=O)CN1C(=O)COc2ccc(-n3c(=O)cc(C(F)(F)F)n(N)c3=O)cc21 [Example 1, ethyl 6-(3-amino-3,6-dihydro-2,6-dioxo-4-trifluoromethyl-1 (2H)-pyrimidynyl)-2,3-dihydro-3-oxo-4H-1,4-benzoxazine-4-acetate] | very strong action against weeds | very strong action against weeds |  | chromatographic logP [1]: 1.9
CCOC(=O)n1c(=O)sc2cc(F)c(-n3c(=O)cc(C(F)(F)F)n(N)c3=O)cc21 [Example 2, ethyl 5-(3-amino-3,6-dihydro-2,6-dioxo-4-trifluoromethyl-1(2H)-pyrimidynyl)-6-fluoro-2-oxo-3(2H)-benzothiazole carboxylate] |  |  |  | chromatographic logP [1]: 2.44
CS(=O)(=O)n1c(=O)sc2cc(F)c(-n3c(=O)cc(C(F)(F)F)n(N)c3=O)cc21 [Example 3, 1-amino-3-(6-fluoro-2,3-dihydro-3-methylsulphonyl-2-oxo-5-benzothiazolyl)-6-trifluoromethyl-2,4(1H,3H)-pyrimidinedione] |  |  |  | chromatographic logP [1]: 2.16
N#CCn1c(=O)sc2cc(F)c(-n3c(=O)cc(C(F)(F)F)n(N)c3=O)cc21 [Example 4] |  |  | 1.97^a) | 
N#CCN1C(=O)COc2cc(F)c(-n3c(=O)cc(C(F)(F)F)n(N)c3=O)cc21 [Example 5] | very strong action against weeds | very strong action against weeds | 1.83^a) | 
N#CCN1C(=O)COc2ccc(-n3c(=O)cc(C(F)(F)F)n(N)c3=O)cc21 [Example 6] | very strong action against weeds | very strong action against weeds | 1.57^a) | 
COC(=O)CN1C(=O)COc2cc(F)c(-n3c(=O)cc(C(F)(F)F)n(N)c3=O)cc21 [Example 7] | very strong action against weeds | very strong action against weeds | 1.90^a) | 
CCOC(=O)CN1C(=O)COc2cc(F)c(-n3c(=O)cc(C(F)(F)F)n(N)c3=O)cc21 [Example 8] | very strong action against weeds | very strong action against weeds | 2.14^a) | 
CC(C)(C)OC(=O)CN1C(=O)COc2cc(F)c(-n3c(=O)cc(C(F)(F)F)n(N)c3=O)cc21 [Example 9] | very strong action against weeds | very strong action against weeds | 2.60^a) | 
CC(C)OC(=O)CN1C(=O)COc2cc(F)c(-n3c(=O)cc(C(F)(F)F)n(N)c3=O)cc21 [Example 10] | very strong action against weeds | very strong action against weeds | 2.38^a) | 
COC(=O)CN1C(=O)COc2ccc(-n3c(=O)cc(C(F)(F)F)n(N)c3=O)cc21 [Example 11] | very strong action against weeds | very strong action against weeds |  | 
CC(C)OC(=O)CN1C(=O)COc2ccc(-n3c(=O)cc(C(F)(F)F)n(N)c3=O)cc21 [Example 12] | very strong action against weeds | very strong action against weeds | 2.14^a) | 
CC(C)(C)OC(=O)CN1C(=O)COc2ccc(-n3c(=O)cc(C(F)(F)F)n(N)c3=O)cc21 [Example 13] |  |  | 2.37^a) | 
CC(=O)n1c(=O)sc2cc(F)c(-n3c(=O)cc(C(F)(F)F)n(N)c3=O)cc21 [Example 14] |  |  | 2.36^a) | 
COC(=O)C=C(CCl)n1c(=O)sc2cc(F)c(-n3c(=O)cc(C(F)(F)F)n(N)c3=O)cc21 [Example 22] |  |  | 2.46^a) | 
CC(C)COC(=O)n1c(=O)sc2cc(F)c(-n3c(=O)cc(C(F)(F)F)n(N)c3=O)cc21 [Example 23] |  |  | 3.17^a) | 
CCOC(=O)C=C(n1c(=O)sc2cc(F)c(-n3c(=O)cc(C(F)(F)F)n(N)c3=O)cc21)C(F)(F)F [Example 24] |  |  | 2.98^a) | 
CCOC(=O)C=CCn1c(=O)sc2cc(F)c(-n3c(=O)cc(C(F)(F)F)n(N)c3=O)cc21 [Example 25] |  |  | 2.51^a) | 
N#Cn1c(=O)sc2cc(F)c(-n3c(=O)cc(C(F)(F)F)n(N)c3=O)cc21 [Example 30] |  |  | 2.19^a) | 
Nn1c(C(F)(F)F)cc(=O)n(-c2cc3[nH]c(=O)sc3cc2F)c1=O [II-1, 1-amino-3-(6-fluoro-2,3-dihydro-2-oxo-1,3-benzothiazol-5-yl)-6-trifluoromethyl-2,4(1H,3H)-pyrimidinedione] |  |  |  | chromatographic logP [1]: 1.66
Nn1c(C(F)(F)F)cc(=O)n(-c2ccc3c(c2)NC(=O)CO3)c1=O [II-2] |  |  |  | logP a) [1, 5]: logP = 1.22^a)
Nn1c(C(F)(F)F)cc(=O)n(-c2cc3c(cc2F)OCC(=O)N3)c1=O [II-3] |  |  |  | logP a) [1, 5]: logP = 1.57^a)
